Results published in BigSolDB 2.1.

Oc1c(Cl)cc(Cl)c2cccnc12
solubility (mole fraction)
Details | 293.15 K | 298.15 K | 303.15 K | 308.15 K | 313.15 K | 318.15 K | 323.15 K | 328.15 K | 333.15 K
in 1,4-dioxane | 0.00523 | 0.0062 | 0.00736 | 0.0089 | 0.0106 | 0.0123 | 0.0146 | 0.017 | 0.0193
in DMF | 0.0132 | 0.016 | 0.0194 | 0.024 | 0.0294 | 0.0347 | 0.0408 | 0.0478 | 0.0555
in DMSO | 0.00296 | 0.00378 | 0.0048 | 0.00633 | 0.00793 | 0.00997 | 0.0123 | 0.0154 | 0.0188
in NMP | 0.00576 | 0.00683 | 0.00823 | 0.00963 | 0.0113 | 0.0137 | 0.0162 | 0.0188 | 0.022
in water | 1.02e-06 | 1.48e-06 | 2.03e-06 | 2.82e-06 | 3.82e-06 | 5e-06 | 6.86e-06 | 8.91e-06 | 1.15e-05
